Measurements reported in ChEMBL document CHEMBL1147584, “Antimalarial activity of phenazines from lapachol, beta-lapachone and its derivatives against Plasmodium falciparum in vitro and Plasmodium berghei in vivo” (Bioorg Med Chem Lett, 2004).
pIC50: −log10 of the molar value.

Experiments:
[1] = tested on: Plasmodium falciparum; experiment: In vitro antimalarial activity for Plasmodium falciparum W2; format: functional, organism-based
[2] = tested on: Plasmodium falciparum; experiment: In vitro antimalarial activity for Plasmodium falciparum HB3; format: functional, organism-based
[3] = tested on: Plasmodium falciparum; experiment: In vitro antimalarial activity for Plasmodium falciparum BHz26/86; format: functional, organism-based
[4] = tested on: Plasmodium falciparum; experiment: In vitro antimalarial activity for Plasmodium falciparum D6; format: functional, organism-based
[5] = tested on: Plasmodium berghei; experiment: Inhibition of Plasmodium berghei infection in mice (Mus musculus) at 200 mg/kg subcutaneous dose (expt 3); format: functional; conditions: sc
[6] = tested on: Plasmodium berghei; experiment: Inhibition of Plasmodium berghei infection in mice (Mus musculus) at 100 mg/kg subcutaneous dose (expt 1); format: functional; conditions: sc
[7] = tested on: Plasmodium berghei; experiment: Inhibition of Plasmodium berghei infection in mice (Mus musculus) at 100 mg/kg subcutaneous dose (experiment 2); format: functional; conditions: sc
[8] = tested on: Plasmodium berghei; experiment: Inhibition of Plasmodium berghei infection in mice (Mus musculus) at 100 mg/kg subcutaneous dose (expt 3); format: functional; conditions: sc
[9] = tested on: Plasmodium berghei; experiment: Inhibition of Plasmodium berghei infection in mice (Mus musculus) at 200 mg/kg peroral dose (expt 2); format: functional; conditions: route oral
[10] = tested on: Plasmodium berghei; experiment: Inhibition of Plasmodium berghei infection in mice (Mus musculus) at 200 mg/kg subcutaneous dose (experiment 1); format: functional; conditions: sc
[11] = tested on: Plasmodium berghei; experiment: Inhibition of Plasmodium berghei infection in mice (Mus musculus) at 200 mg/kg subcutaneous dose (expt 2); format: functional; conditions: sc
[12] = tested on: Plasmodium berghei; experiment: Inhibition of Plasmodium berghei infection in mice (Mus musculus) at 200 mg/kg peroral dose (expt 1); format: functional; conditions: route oral
[13] = tested on: Plasmodium berghei; experiment: Inhibition of Plasmodium berghei infection in mice (Mus musculus) at 25 mg/kg peroral dose (expt 2); format: functional; conditions: route oral
[14] = tested on: Plasmodium berghei; experiment: Inhibition of Plasmodium berghei infection in mice (Mus musculus) at 25 mg/kg peroral dose (experiment 1); format: functional; conditions: route oral
[15] = tested on: Plasmodium berghei; experiment: Inhibition of Plasmodium berghei infection in mice (Mus musculus) at 15 mg/kg subcutaneous dose (experiment 3); format: functional; conditions: sc
[16] = tested on: Plasmodium berghei; experiment: Inhibition of Plasmodium berghei infection in mice (Mus musculus) at 15 mg/kg subcutaneous dose (experiment 2); format: functional; conditions: sc
[17] = tested on: Plasmodium berghei; experiment: Inhibition of Plasmodium berghei in mice (Mus musculus) after 15 mg/kg subcutaneous dose (experiment 1); format: functional; conditions: sc

| Structure (SMILES) | pIC50 [1] | pIC50 [2] | pIC50 [3] | pIC50 [4] | inhibition in vivo at 200 mg/kg [9] | inhibition in vivo at 200 mg/kg [12] | also measured |
| --- | --- | --- | --- | --- | --- | --- | --- |
| C=CCC1Cc2c(c3ccccc3c3nc4ccccc4nc23)OC1(C)C (configuration not stated) | < 4.70 | < 4.70 | < 4.70 | < 4.70 | – | – | – |
| CC1(C)Oc2c(c3nc4ccccc4nc3c3ccccc23)CC1I (configuration not stated) | 5.49 | 5.18 | 5.64 | 5.37 | – | – | – |
| CC1(C)Oc2c(c3nc4ccccc4nc3c3ccccc23)CC1S(=O)(=O)O (configuration not stated) | 5.78 | 5.21 | 5.76 | 5.61 | 36% | 33% | inhibition in vivo at 200 mg/kg [5]: 98%; inhibition in vivo at 100 mg/kg [6]: 34%; inhibition in vivo at 100 mg/kg [7]: 31%; inhibition in vivo at 200 mg/kg [10]: 50%; inhibition in vivo at 200 mg/kg [11]: 40% |
| c1ccc2c(c1)ccc1nc3ccccc3nc12 [BENZO[A]PHENAZINE] | < 4.70 | < 4.70 | < 4.70 | < 4.70 | – | – | – |
| CCN(CC)CCCC(C)Nc1ccnc2cc(Cl)ccc12 (configuration not stated) [CHLOROQUINE] | – | – | – | – | – | – | inhibition in vivo at 25 mg/kg [13]: 98%; inhibition in vivo at 25 mg/kg [14]: 99%; inhibition in vivo at 15 mg/kg [15]: 99%; inhibition in vivo at 15 mg/kg [16]: 99%; inhibition in vivo at 15 mg/kg [17]: 99% |
| CC(C)=CCC1=C(O)C(=O)c2ccccc2C1=O [LAPACHOL] | – | – | – | – | 0% | 0% | – |
| CC1(C)CCC2=C(O1)c1ccccc1C(=O)C2=O [LAPACHONE] | – | – | – | – | 34% | 28% | – |

More lines, main results first:

| pIC50 [1] | pIC50 [2] | pIC50 [3] | pIC50 [4] | Structure (SMILES) | inhibition in vivo at 200 mg/kg [9] | inhibition in vivo at 200 mg/kg [12] | also measured |
| --- | --- | --- | --- | --- | --- | --- | --- |
| < 4.70 | < 4.70 | < 4.70 | < 4.70 | CC1(C)CCc2c(c3ccccc3c3nc4ccccc4nc23)O1 | – | – | – |
| 5.52 | 5.06 | 5.72 | 5.39 | CC1(C)Oc2c(c3nc4ccccc4nc3c3ccccc23)CC1Br (configuration not stated) | 10% | 11% | inhibition in vivo at 200 mg/kg [5]: 0%; inhibition in vivo at 100 mg/kg [6]: 0%; inhibition in vivo at 100 mg/kg [7]: 0%; inhibition in vivo at 100 mg/kg [8]: 0%; inhibition in vivo at 200 mg/kg [10]: 0%; inhibition in vivo at 200 mg/kg [11]: 0% |
| 5.45 | 5.03 | 5.50 | 5.43 | CC(C)=CCc1c(O)c2ccccc2c2nc3ccccc3nc12 | – | – | – |
